Laboratory results reported in a compilation of properties of binary mixtures (doi:10.1021/acs.jpcc.8b05573).

Experiment: xn = mol fraction of the nth substance listed
Conditions: 100 kPa, x1 = 0.24

O=S(=O)([N-]S(=O)(=O)C(F)(F)F)C(F)(F)F.O=S(=O)([N-]S(=O)(=O)C(F)(F)F)C(F)(F)F.[Mg+2] + CCCC[N+]1(C)CCCC1.O=S(=O)([N-]S(=O)(=O)C(F)(F)F)C(F)(F)F
Conditions | electrical conductivity [S/m]
279.2 K | 0.003
282.4 K | 0.005
286.1 K | 0.006
289.5 K | 0.009
293 K | 0.013
296.9 K | 0.017
300.2 K | 0.022
304.4 K | 0.031
310.6 K | 0.046
317.5 K | 0.07
323.8 K | 0.096
334.5 K | 0.159
345.4 K | 0.252
355.5 K | 0.346
363.5 K | 0.461
372.9 K | 0.574
386 K | 0.786
400.6 K | 1.08
417.1 K | 1.44

O=S(=O)([N-]S(=O)(=O)C(F)(F)F)C(F)(F)F.O=S(=O)([N-]S(=O)(=O)C(F)(F)F)C(F)(F)F.[Zn+2] + CCCC[N+]1(C)CCCC1.O=S(=O)([N-]S(=O)(=O)C(F)(F)F)C(F)(F)F
Conditions | electrical conductivity [S/m]
337.3 K | 0.163
344.9 K | 0.213
366.8 K | 0.399
375.2 K | 0.508
391 K | 0.805
430.4 K | 1.79
449.5 K | 2.51

O=S(=O)([N-]S(=O)(=O)C(F)(F)F)C(F)(F)F.[Li+] + CCCC[N+]1(C)CCCC1.O=S(=O)([N-]S(=O)(=O)C(F)(F)F)C(F)(F)F
Conditions | electrical conductivity [S/m]
272.9 K | 0.005
279.8 K | 0.01
288.8 K | 0.027
295.1 K | 0.052
305.1 K | 0.098
325.1 K | 0.235
338.2 K | 0.329
360.2 K | 0.633
371.2 K | 0.846
385.4 K | 1.24
409.4 K | 1.88
429.6 K | 2.77

O=S(=O)([N-]S(=O)(=O)C(F)(F)F)C(F)(F)F.[Na+] + CCCC[N+]1(C)CCCC1.O=S(=O)([N-]S(=O)(=O)C(F)(F)F)C(F)(F)F
Conditions | electrical conductivity [S/m]
274.2 K | 0.006
283.8 K | 0.02
291.9 K | 0.041
300.2 K | 0.07
308.6 K | 0.119
323.4 K | 0.223
356.5 K | 0.663
362.4 K | 0.805
380.6 K | 1.24
417.8 K | 2.45
434.2 K | 3.04
